According to PubChem BioAssay (NCI):
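Five compound concentrations were applied to cells in 96-well plates for 48 hours; endpoints were derived by simple linear interpolation of the resulting dose-response curve. At the GI50, growth is halved. TGI marks complete inhibition of growth.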

Columns and labels:
Test in all cases: NCI-60 cell line screen, 48 h
SNB-75 CNS = test system: SNB-75 CNS
SF-295 CNS = test system: SF-295 CNS
HOP-62 NSCLC = test system: HOP-62 NSCLC
BT-549 breast = test system: BT-549 breast
UACC-257 melanoma = test system: UACC-257 melanoma
HL-60(TB) leukemia = test system: HL-60(TB) leukemia
T-47D breast = test system: T-47D breast
NCI-H226 lung = test system: NCI-H226 lung
SNB-19 CNS = test system: SNB-19 CNS
HCC-2998 colon = test system: HCC-2998 colon
LOX IMVI melanoma = test system: LOX IMVI melanoma
M14 melanoma = test system: M14 melanoma
KM12 colon = test system: KM12 colon
CCRF-CEM leukemia = test system: CCRF-CEM leukemia
HS 578T breast = test system: HS 578T breast
MALME-3M melanoma = test system: MALME-3M melanoma
SR leukemia = test system: SR leukemia
SF-268 CNS = test system: SF-268 CNS
TK-10 renal = test system: TK-10 renal
RPMI-8226 leukemia = test system: RPMI-8226 leukemia
SK-MEL-28 melanoma = test system: SK-MEL-28 melanoma
OVCAR-4 ovarian = test system: OVCAR-4 ovarian
SF-539 CNS = test system: SF-539 CNS
MOLT-4 leukemia = test system: MOLT-4 leukemia
SK-OV-3 ovarian = test system: SK-OV-3 ovarian
U251 CNS = test system: U251 CNS
DU-145 prostate = test system: DU-145 prostate
MCF7 breast = test system: MCF7 breast
ACHN renal = test system: ACHN renal
HCT-15 colon = test system: HCT-15 colon
IGROV1 ovarian = test system: IGROV1 ovarian
COLO 205 colon = test system: COLO 205 colon
UO-31 renal = test system: UO-31 renal
OVCAR-5 ovarian = test system: OVCAR-5 ovarian
OVCAR-8 ovarian = test system: OVCAR-8 ovarian
NCI/ADR-RES ovarian = test system: NCI/ADR-RES ovarian
NCI-H23 lung = test system: NCI-H23 lung
HCT-116 colon = test system: HCT-116 colon
A498 renal = test system: A498 renal
MDA-MB-435 = test system: MDA-MB-435
786-0 renal = test system: 786-0 renal
K-562 leukemia = test system: K-562 leukemia
HT29 colon = test system: HT29 colon
HOP-92 NSCLC = test system: HOP-92 NSCLC
RXF 393 renal = test system: RXF 393 renal
UACC-62 melanoma = test system: UACC-62 melanoma
SK-MEL-2 melanoma = test system: SK-MEL-2 melanoma
SN12C renal = test system: SN12C renal
PC-3 prostate = test system: PC-3 prostate
OVCAR-3 ovarian = test system: OVCAR-3 ovarian
NCI-H460 lung = test system: NCI-H460 lung
NCI-H522 lung = test system: NCI-H522 lung
SW-620 colon = test system: SW-620 colon
EKVX NSCLC = test system: EKVX NSCLC
MDA-MB-231 breast = test system: MDA-MB-231 breast
SK-MEL-5 melanoma = test system: SK-MEL-5 melanoma
A549 NSCLC = test system: A549 NSCLC
CAKI-1 renal = test system: CAKI-1 renal

## COc1ccc(C#Cc2ccc(=O)oc2-c2cc(OC)c(OC)c(OC)c2)cc1O
SNB-75 CNS
  GI50: 5.52 µM
  TGI: 27.8 µM
SF-295 CNS
  GI50: 4.49 µM
  TGI: > 45.2 µM
HOP-62 NSCLC
  GI50: 5.12 µM
  TGI: > 64.6 µM
BT-549 breast
  GI50: 7.37 µM
  TGI: > 64.2 µM
UACC-257 melanoma
  GI50: 7.87 µM
  TGI: > 100 µM
HL-60(TB) leukemia
  GI50: 2.13 µM
  TGI: 17.4 µM
T-47D breast
  TGI: > 100 µM
NCI-H226 lung
  GI50: > 34 µM
  TGI: > 100 µM
SNB-19 CNS
  GI50: 18 µM
  TGI: > 100 µM
HCC-2998 colon
  GI50: 3.36 µM
  TGI: 44 µM
LOX IMVI melanoma
  GI50: 12.3 µM
  TGI: > 100 µM
M14 melanoma
  GI50: 4.33 µM
  TGI: > 51.6 µM
KM12 colon
  GI50: 3.54 µM
  TGI: > 100 µM
CCRF-CEM leukemia
  GI50: 6.95 µM
  TGI: > 100 µM
HS 578T breast
  GI50: 7.4 µM
  TGI: > 81.9 µM
MALME-3M melanoma
  GI50: 10.2 µM
  TGI: > 83.7 µM
SR leukemia
  GI50: 0.225 µM
  TGI: 18.7 µM
SF-268 CNS
  GI50: 7.23 µM
  TGI: > 90.8 µM
TK-10 renal
  GI50: 21.8 µM
  TGI: > 100 µM
RPMI-8226 leukemia
  GI50: 7.83 µM
  TGI: > 88 µM
SK-MEL-28 melanoma
  GI50: 18.2 µM
  TGI: > 100 µM
OVCAR-4 ovarian
  GI50: 20.3 µM
  TGI: > 100 µM
SF-539 CNS
  GI50: 6.27 µM
  TGI: 40.4 µM
MOLT-4 leukemia
  GI50: 6.3 µM
  TGI: > 100 µM
SK-OV-3 ovarian
  GI50: 6.58 µM
  TGI: > 83.1 µM
U251 CNS
  GI50: 5.4 µM
  TGI: > 100 µM
DU-145 prostate
  GI50: 8.96 µM
  TGI: > 85.9 µM
MCF7 breast
  GI50: 0.666 µM
  TGI: > 100 µM
ACHN renal
  GI50: 17.2 µM
  TGI: > 100 µM
HCT-15 colon
  GI50: 2.86 µM
  TGI: > 100 µM
IGROV1 ovarian
  GI50: 1.02 µM
  TGI: 6.75 µM
COLO 205 colon
  GI50: 37.3 µM
  TGI: > 100 µM
UO-31 renal
  GI50: 11.1 µM
  TGI: > 79.8 µM
OVCAR-5 ovarian
  GI50: 24 µM
  TGI: > 100 µM
OVCAR-8 ovarian
  GI50: 10.6 µM
  TGI: > 100 µM
NCI/ADR-RES ovarian
  GI50: 2.6 µM
  TGI: > 40.6 µM
NCI-H23 lung
  GI50: 10.7 µM
  TGI: > 100 µM
HCT-116 colon
  GI50: 3.28 µM
  TGI: > 100 µM
A498 renal
  GI50: 10.1 µM
  TGI: > 83.1 µM
MDA-MB-435
  GI50: 0.234 µM
  TGI: 2.78 µM
786-0 renal
  GI50: 5.49 µM
  TGI: > 33.2 µM
K-562 leukemia
  GI50: 0.505 µM
  TGI: > 100 µM
HT29 colon
  GI50: 7.98 µM
  TGI: > 35.6 µM
HOP-92 NSCLC
  GI50: 0.575 µM
  TGI: 38.8 µM
RXF 393 renal
  GI50: 1.12 µM
  TGI: 8.43 µM
UACC-62 melanoma
  GI50: 5.53 µM
  TGI: > 100 µM
SK-MEL-2 melanoma
  GI50: 6.74 µM
  TGI: > 100 µM
SN12C renal
  GI50: 20.7 µM
  TGI: > 100 µM
PC-3 prostate
  GI50: 8.22 µM
  TGI: > 100 µM
OVCAR-3 ovarian
  GI50: 1.81 µM
  TGI: 28.5 µM
NCI-H460 lung
  GI50: 0.973 µM
  TGI: > 100 µM
NCI-H522 lung
  GI50: 1.1 µM
  TGI: 22.3 µM
SW-620 colon
  GI50: 1.22 µM
  TGI: > 100 µM
EKVX NSCLC
  GI50: 22.2 µM
  TGI: > 100 µM
MDA-MB-231 breast
  GI50: 6.25 µM
  TGI: > 100 µM
SK-MEL-5 melanoma
  GI50: 0.654 µM
  TGI: > 46.1 µM
A549 NSCLC
  GI50: 7.08 µM
  TGI: > 100 µM
CAKI-1 renal
  GI50: 7.6 µM
  TGI: > 100 µM
